Assay results reported in US20250059171A1 (Hoffmann-La Roche Inc., priority 2021, published 2025).
pIC50: −log10 of the molar value.

Assays:
[1] = target: HCoV-229E 3CLpro (Human coronavirus 229E, UniProt P0C6X1); test: HCoV-229E 3CLpro inhibition assay (FRET); type: biochemical
[2] = target: MERS-CoV 3CLpro (Middle East respiratory syndrome-related coronavirus, UniProt K9N7C7); test: biochemical
[3] = target: SARS-CoV 3CLpro (Severe acute respiratory syndrome coronavirus, UniProt P0C6X7); test: biochemical
[4] = target: SARS-CoV-2 3CLpro (Severe acute respiratory syndrome coronavirus 2, UniProt P0DTD1); test: biochemical

MERS-CoV 3CLpro, sequence (K9N7C7 3248-3553): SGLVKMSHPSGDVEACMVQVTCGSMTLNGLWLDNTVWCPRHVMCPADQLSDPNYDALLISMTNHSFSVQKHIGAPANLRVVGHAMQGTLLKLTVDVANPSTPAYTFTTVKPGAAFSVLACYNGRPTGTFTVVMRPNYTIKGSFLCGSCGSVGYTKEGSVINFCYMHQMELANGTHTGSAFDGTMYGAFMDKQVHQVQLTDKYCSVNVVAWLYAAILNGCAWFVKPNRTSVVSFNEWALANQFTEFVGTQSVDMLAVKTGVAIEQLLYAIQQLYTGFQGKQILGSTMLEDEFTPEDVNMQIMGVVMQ
HCoV-229E 3CLpro, sequence (P0C6X1 2966-3267): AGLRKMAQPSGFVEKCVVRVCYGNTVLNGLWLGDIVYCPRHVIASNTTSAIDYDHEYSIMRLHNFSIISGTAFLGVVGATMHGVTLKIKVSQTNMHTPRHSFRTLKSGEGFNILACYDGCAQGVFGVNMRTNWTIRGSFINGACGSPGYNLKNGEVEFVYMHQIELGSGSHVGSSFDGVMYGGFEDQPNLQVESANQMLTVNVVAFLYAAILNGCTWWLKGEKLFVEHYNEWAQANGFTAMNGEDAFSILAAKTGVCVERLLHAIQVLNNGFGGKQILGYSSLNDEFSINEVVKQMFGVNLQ

Row | SMILES | pIC50 [1] | pIC50 [2] | pIC50 [3] | pIC50 [4]
1 | CC(C)(C)[C@H](NC(=O)[C@@H]1CC1(F)F)C(=O)N1C[C@H]2[C@@H]([C@H]1C(=O)NN(C[C@@H]1CCNC1=O)C(=O)[C@@H](F)Cl)C2(C)C [Example 95, (1S)—N-[(1S)-1-[(1R,2S,5S)-2-[[[(2S)-2-chloro-2-fluoro-acetyl]-[[(3S)-2-oxopyrrolidin-3-yl]methyl]amino]carbamoyl]-6,6-dimethyl-3-azabicyclo[3.1.0]hexane-3-carbonyl]-2,2-dimethyl-propyl]-2,2-difluoro-cyclopropanecarboxamide] | 7.55 | 7.15 | 7.85 | 8.00
2 | CCC(CC)[C@H](NC(=O)C1CC1)C(=O)N1C[C@@H]2CCC[C@@H]2[C@H]1C(=O)NN(C[C@@H]1CCNC1=O)C(=O)[C@H](F)Cl [Example 135, N-[(1S)-1-[(3S,3aS,6aR)-3-[[[(2R)-2-chloro-2-fluoro-acetyl]-[[(3S)-2-oxopyrrolidin-3-yl]methyl]amino]carbamoyl]-3,3a,4,5,6,6a-hexahydro-1H-cyclopenta[c]pyrrole-2-carbonyl]-2-ethyl-butyl]cyclopropanecarboxamide] | 7.41 | 6.88 | 7.82 | 7.96
3 | CC(=O)N[C@H](C(=O)N1C[C@@H]2CCC[C@@H]2[C@H]1C(=O)NN(C[C@@H]1CCNC1=O)C(=O)[C@H](F)Cl)C(C)(C)C [Example 29, N-[(1S)-1-[(3S,3aS,6aR)-3-[[[(2R)-2-chloro-2-fluoro-acetyl]-[[(3S)-2-oxopyrrolidin-3-yl]methyl]amino]carbamoyl]-3,3a,4,5,6,6a-hexahydro-1H-cyclopenta[c]pyrrole-2-carbonyl]-2,2-dimethyl-propyl]acetamide] | 7.55 | 7.17 | 7.96 | 8.00
4 | CC(C)(C)C[C@H](NC(=O)C1(F)CC1)C(=O)N1C[C@H]2[C@@H]([C@H]1C(=O)NN(C[C@@H]1CCNC1=O)C(=O)[C@H](F)Cl)C2(C)C [Example 162, N-[(1S)-1-[(1R,2S,5S)-2-[[[(2R)-2-chloro-2-fluoro-acetyl]-[[(3S)-2-oxopyrrolidin-3-yl]methyl]amino]carbamoyl]-6,6-dimethyl-3-azabicyclo[3.1.0]hexane-3-carbonyl]-3,3-dimethyl-butyl]-1-fluoro-cyclopropanecarboxamide] | 7.48 | 7.03 | 7.82 | 7.92
5 | CC[C@H](C)[C@H](NC(=O)CC(F)(F)F)C(=O)N1C[C@@H]2CCC[C@@H]2[C@H]1C(=O)NN(C[C@@H]1CCNC1=O)C(=O)[C@H](F)Cl [Example 45, N-[(1S,2S)-1-[(3S,3aS,6aR)-3-[[[(2R)-2-chloro-2-fluoro-acetyl]-[[(3S)-2-oxopyrrolidin-3-yl]methyl]amino]carbamoyl]-3,3a,4,5,6,6a-hexahydro-1H-cyclopenta[c]pyrrole-2-carbonyl]-2-methyl-butyl]-3,3,3-trifluoro-propanamide] | 7.46 | 6.98 | 8.00 | 7.72
6 | CC[C@H](C)[C@H](NC(=O)C1CC(F)(F)C1)C(=O)N1C[C@H]2[C@@H]([C@H]1C(=O)NN(C[C@@H]1CCNC1=O)C(=O)[C@H](F)Cl)C2(C)C [Example 58, N-[(1S,2S)-1-[(1R,2S,5S)-2-[[[(2R)-2-chloro-2-fluoro-acetyl]-[[(3S)-2-oxopyrrolidin-3-yl]methyl]amino]carbamoyl]-6,6-dimethyl-3-azabicyclo[3.1.0]hexane-3-carbonyl]-2-methyl-butyl]-3,3-difluoro-cyclobutanecarboxamide] | 7.59 | 7.14 | 7.82 | 7.96
7 | CC[C@H](C)[C@H](NC(=O)C(C)(F)F)C(=O)N1C[C@@H]2CCC[C@@H]2[C@H]1C(=O)NN(C[C@@H]1CCNC1=O)C(=O)[C@H](F)Cl [Example 40, N-[(1S,2S)-1-[(3S,3aS,6aR)-3-[[[(2R)-2-chloro-2-fluoro-acetyl]-[[(3S)-2-oxopyrrolidin-3-yl]methyl]amino]carbamoyl]-3,3a,4,5,6,6a-hexahydro-1H-cyclopenta[c]pyrrole-2-carbonyl]-2-methyl-butyl]-2,2-difluoro-propanamide] | 7.57 | 7.30 | 7.89 | 7.68
8 | CC(C)(C)[C@H](NC(=O)C(F)(F)C(F)(F)F)C(=O)N1C[C@@H]2CCC[C@@H]2[C@H]1C(=O)NN(C[C@@H]1CCNC1=O)C(=O)[C@H](F)Cl [Example 71, N-[(1S)-1-[(3S,3aS,6aR)-3-[[[(2R)-2-chloro-2-fluoro-acetyl]-[[(3S)-2-oxopyrrolidin-3-yl]methyl]amino]carbamoyl]-3,3a,4,5,6,6a-hexahydro-1H-cyclopenta[c]pyrrole-2-carbonyl]-2,2-dimethyl-propyl]-2,2,3,3,3-pentafluoro-propanamide] | 7.72 | 7.39 | 8.00 | 8.15
9 | CCC(C)(C)[C@H](NC(=O)C(F)(F)F)C(=O)N1C[C@H]2[C@@H]([C@H]1C(=O)NN(C[C@@H]1CCNC1=O)C(=O)[C@H](F)Cl)C2(C)C [Example 86, N-[(1S)-1-[(1R,2S,5S)-2-[[[(2R)-2-chloro-2-fluoro-acetyl]-[[(3S)-2-oxopyrrolidin-3-yl]methyl]amino]carbamoyl]-6,6-dimethyl-3-azabicyclo[3.1.0]hexane-3-carbonyl]-2,2-dimethyl-butyl]-2,2,2-trifluoro-acetamide] | 7.46 | 7.07 | 7.72 | 8.15
10 | CC[C@H](C)[C@H](NC(=O)[C@H](F)Cl)C(=O)N1C[C@H]2[C@@H]([C@H]1C(=O)NN(C[C@@H]1CCNC1=O)C(=O)[C@H](F)Cl)C2(C)C [Example 185, (2R)-2-chloro-N-[(1S,2S)-1-[(1R,2S,5S)-2-[[[(2R)-2-chloro-2-fluoro-acetyl]-[[(3S)-2-oxopyrrolidin-3-yl]methyl]amino]carbamoyl]-6,6-dimethyl-3-azabicyclo[3.1.0]hexane-3-carbonyl]-2-methyl-butyl]-2-fluoro-acetamide] | 7.40 | 7.00 | 7.68 | 7.96
11 | CC[C@H](C)[C@H](NC(=O)C1(F)CC1)C(=O)N1C[C@H]2[C@@H]([C@H]1C(=O)NN(C[C@@H]1CCNC1=O)C(=O)[C@H](F)Cl)C2(C)C [Example 59, N-[(1S,2S)-1-[(1R,2S,5S)-2-[[[(2R)-2-chloro-2-fluoro-acetyl]-[[(3S)-2-oxopyrrolidin-3-yl]methyl]amino]carbamoyl]-6,6-dimethyl-3-azabicyclo[3.1.0]hexane-3-carbonyl]-2-methyl-butyl]-1-fluoro-cyclopropanecarboxamide] | 7.68 | 7.21 | 7.77 | 8.15
12 | CC(C)(C)[C@H](NC(=O)[C@@H]1CC1(F)F)C(=O)N1C[C@@H]2CCC[C@@H]2[C@H]1C(=O)NN(C[C@@H]1CCCNC1=O)C(=O)[C@@H](F)Cl [Example 197, (1S)—N-[(1S)-1-[(3S,3aS,6aR)-3-[[[(2S)-2-chloro-2-fluoro-acetyl]-[[(3S)-2-oxo-3-piperidyl]methyl]amino]carbamoyl]-3,3a,4,5,6,6a-hexahydro-1H-cyclopenta[c]pyrrole-2-carbonyl]-2,2-dimethyl-propyl]-2,2-difluoro-cyclopropanecarboxamide] | 7.19 | 7.03 | 7.89 | 7.96
13 | CC1([C@H](NC(=O)C(F)(F)F)C(=O)N2C[C@H]3[C@@H]([C@H]2C(=O)NN(C[C@@H]2CCNC2=O)C(=O)[C@H](F)Cl)C3(C)C)CC1 [Example 68, N-[(1S)-2-[(1R,2S,5S)-2-[[[(2R)-2-chloro-2-fluoro-acetyl]-[[(3S)-2-oxopyrrolidin-3-yl]methyl]amino]carbamoyl]-6,6-dimethyl-3-azabicyclo[3.1.0]hexan-3-yl]-1-(1-methylcyclopropyl)-2-oxo-ethyl]-2,2,2-trifluoro-acetamide] | 7.64 | 7.09 | 7.85 | 7.74
14 | CCC(C)(C)[C@H](NC(=O)C1CC1)C(=O)N1C[C@H]2[C@@H]([C@H]1C(=O)NN(C[C@@H]1CCNC1=O)C(=O)[C@@H](F)Cl)C2(C)C [Example 147, N-[(1S)-1-[(1R,2S,5S)-2-[[[(2S)-2-chloro-2-fluoro-acetyl]-[[(3S)-2-oxopyrrolidin-3-yl]methyl]amino]carbamoyl]-6,6-dimethyl-3-azabicyclo[3.1.0]hexane-3-carbonyl]-2,2-dimethyl-butyl]cyclopropanecarboxamide] | 7.40 | 7.05 | 7.80 | 7.92
15 | CCC(C)(C)[C@H](NC(=O)C1CC1)C(=O)N1C[C@H]2[C@@H]([C@H]1C(=O)NN(C[C@@H]1CCNC1=O)C(=O)[C@H](F)Cl)C2(C)C [Example 142, N-[(1S)-1-[(1R,2S,5S)-2-[[[(2R)-2-chloro-2-fluoro-acetyl]-[[(3S)-2-oxopyrrolidin-3-yl]methyl]amino]carbamoyl]-6,6-dimethyl-3-azabicyclo[3.1.0]hexane-3-carbonyl]-2,2-dimethyl-butyl]cyclopropanecarboxamide] | 7.51 | 7.08 | 7.89 | 8.00
16 | CC[C@H](C)[C@H](NC(=O)C(C)F)C(=O)N1C[C@@H]2CCC[C@@H]2[C@H]1C(=O)NN(C[C@@H]1CCNC1=O)C(=O)[C@H](F)Cl (mixture of isomers) [Example 43, Rac-2-fluoro-N-[(1S,2S)-2-methyl-1-[(3S,3aS,6aR)-3-[[[(2R)-2-chloro-2-fluoro-acetyl]-[[(3S)-2-oxopyrrolidin-3-yl]methyl]amino]carbamoyl]-3,3a,4,5,6,6a-hexahydro-1H-cyclopenta[c]pyrrole-2-carbonyl]butyl]propanamide] | 7.66 | 7.24 | 7.96 | 8.10
